Results from the NIST ThermoML archive (doi:10.1016/j.jct.2010.05.011).
± gives the expanded uncertainty stated by the source.

Assays:
[1] = 101.33 kPa, Liquid; for speed of sound: Sing-around technique in a fixed-path interferometer; for mass density: Vibrating tube method; for viscosity: Capillary tube (Ostwald / Ubbelohde) method
[2] = refractive index (Na D-line) (dimensionless); details: 101.33 kPa, Liquid, Standard Abbe refractometry

Q: For `COS(=O)(=O)[O-].C[n+]1ccccc1` [1-methylpyridinium methylsulfate], which speed of sound ([1]; 293.15 K) is on record?
A: Its speed of sound is 1888.6 ± 4.5 m/s.

Q: What about the mass density ([1]; 293.15 K) of the same compound?
A: The mass density was 1348.22 ± 1.6 kg/m3.

Q: And the viscosity ([1]; 298.15 K)?
A: Its viscosity is 116.2 ± 7.3 mPa·s.

Q: What about the speed of sound ([1]; 298.15 K) of the same compound?
A: Its speed of sound is 1876.4 ± 4.5 m/s.

Q: What about the mass density ([1]; 298.15 K) of the same compound?
A: The mass density was 1344.83 ± 1.6 kg/m3.

Q: What about the viscosity ([1]; 303.15 K) of the same compound?
A: The viscosity was 91 ± 5.7 mPa·s.

Q: What about the speed of sound ([1]; 303.15 K) of the same compound?
A: The speed of sound was 1864.4 ± 4.5 m/s.

Q: And the mass density ([1]; 303.15 K)?
A: The mass density was 1341.44 ± 1.6 kg/m3.

Q: What about the viscosity ([1]; 308.15 K) of the same compound?
A: The viscosity was 73.1 ± 4.5 mPa·s.

Q: And the speed of sound ([1]; 308.15 K)?
A: Its speed of sound is 1852.6 ± 4.5 m/s.

Q: What about the mass density ([1]; 308.15 K) of the same compound?
A: Its mass density is 1338.07 ± 1.6 kg/m3.

Q: What about the viscosity ([1]; 313.15 K) of the same compound?
A: The viscosity was 59.7 ± 3.7 mPa·s.

Q: And the speed of sound ([1]; 313.15 K)?
A: The speed of sound was 1840.9 ± 4.5 m/s.

Q: What about the mass density ([1]; 313.15 K) of the same compound?
A: The mass density was 1334.71 ± 1.6 kg/m3.

Q: And the viscosity ([1]; 318.15 K)?
A: The viscosity was 49.3 ± 3 mPa·s.

Q: What about the speed of sound ([1]; 318.15 K) of the same compound?
A: Its speed of sound is 1829.4 ± 4.5 m/s.

Q: And the mass density ([1]; 318.15 K)?
A: Its mass density is 1331.35 ± 1.6 kg/m3.

Q: And the viscosity ([1]; 323.15 K)?
A: The viscosity was 41.29 ± 2.5 mPa·s.

Q: And the speed of sound ([1]; 323.15 K)?
A: Its speed of sound is 1817.9 ± 4.5 m/s.

Q: What about the mass density ([1]; 323.15 K) of the same compound?
A: Its mass density is 1328.01 ± 1.6 kg/m3.

Q: What about the viscosity ([1]; 328.15 K) of the same compound?
A: The viscosity was 35.41 ± 2.2 mPa·s.

Q: What about the speed of sound ([1]; 328.15 K) of the same compound?
A: The speed of sound was 1806.5 ± 4.5 m/s.

Q: What about the mass density ([1]; 328.15 K) of the same compound?
A: Its mass density is 1324.69 ± 1.6 kg/m3.

Q: And the viscosity ([1]; 333.15 K)?
A: The viscosity was 30.22 ± 1.9 mPa·s.

Q: And the speed of sound ([1]; 333.15 K)?
A: Its speed of sound is 1795.2 ± 4.5 m/s.

Q: And the mass density ([1]; 333.15 K)?
A: The mass density was 1321.38 ± 1.6 kg/m3.

Q: What about the viscosity ([1]; 338.15 K) of the same compound?
A: The viscosity was 26.16 ± 1.6 mPa·s.

Q: And the speed of sound ([1]; 338.15 K)?
A: Its speed of sound is 1784 ± 4.5 m/s.

Q: And the mass density ([1]; 338.15 K)?
A: The mass density was 1318.09 ± 1.6 kg/m3.

Q: And the viscosity ([1]; 343.15 K)?
A: Its viscosity is 22.77 ± 1.4 mPa·s.

Q: What about the speed of sound ([1]; 343.15 K) of the same compound?
A: Its speed of sound is 1772.8 ± 4.5 m/s.

Q: What about the mass density ([1]; 343.15 K) of the same compound?
A: Its mass density is 1314.82 ± 1.6 kg/m3.

Q: What about the refractive index ([2]; 293.15 K) of the same compound?
A: Its refractive index is 1.51431 ± 0.00051.

Q: What about the refractive index ([2]; 298.15 K) of the same compound?
A: Its refractive index is 1.51296 ± 0.00051.

Q: And the refractive index ([2]; 303.15 K)?
A: Its refractive index is 1.51162 ± 0.00051.

Q: What about the refractive index ([2]; 308.15 K) of the same compound?
A: Its refractive index is 1.51029 ± 0.00051.

Q: And the refractive index ([2]; 313.15 K)?
A: Its refractive index is 1.50895 ± 0.00051.

Q: And the refractive index ([2]; 318.15 K)?
A: The refractive index was 1.50764 ± 0.00051.

Q: And the refractive index ([2]; 323.15 K)?
A: Its refractive index is 1.50629 ± 0.00051.

Q: What about the refractive index ([2]; 328.15 K) of the same compound?
A: The refractive index was 1.50497 ± 0.00051.

Q: What about the refractive index ([2]; 333.15 K) of the same compound?
A: The refractive index was 1.50361 ± 0.00051.

Q: And the refractive index ([2]; 338.15 K)?
A: The refractive index was 1.50226 ± 0.00051.

Q: And the refractive index ([2]; 343.15 K)?
A: Its refractive index is 1.5009 ± 0.00051.

Q: What does the source list for `CCc1cccc[n+]1C.COS(=O)(=O)[O-]` [2-ethyl-1-methylpyridinium methyl sulfate]?
A: speed of sound ([1]; 293.15 K): 1869.2 ± 4.5 m/s; mass density ([1]; 293.15 K): 1288.3 ± 1.5 kg/m3; viscosity ([1]; 298.15 K): 4559 ± 420 mPa·s; speed of sound ([1]; 298.15 K): 1856 ± 4.5 m/s; mass density ([1]; 298.15 K): 1284.7 ± 1.5 kg/m3; viscosity ([1]; 303.15 K): 3207 ± 290 mPa·s; speed of sound ([1]; 303.15 K): 1842.4 ± 4.5 m/s; mass density ([1]; 303.15 K): 1281.3 ± 1.5 kg/m3; viscosity ([1]; 308.15 K): 2329 ± 200 mPa·s; speed of sound ([1]; 308.15 K): 1830.5 ± 4.5 m/s; mass density ([1]; 308.15 K): 1277.9 ± 1.5 kg/m3; viscosity ([1]; 313.15 K): 1728 ± 140 mPa·s; speed of sound ([1]; 313.15 K): 1818.4 ± 4.5 m/s; mass density ([1]; 313.15 K): 1274.49 ± 1.4 kg/m3; viscosity ([1]; 318.15 K): 1293 ± 100 mPa·s; speed of sound ([1]; 318.15 K): 1806.5 ± 4.5 m/s; mass density ([1]; 318.15 K): 1271.15 ± 1.4 kg/m3; viscosity ([1]; 323.15 K): 1012 ± 78 mPa·s; speed of sound ([1]; 323.15 K): 1794.9 ± 4.5 m/s; mass density ([1]; 323.15 K): 1267.6 ± 1.4 kg/m3; viscosity ([1]; 328.15 K): 802 ± 60 mPa·s; speed of sound ([1]; 328.15 K): 1783 ± 4.5 m/s; mass density ([1]; 328.15 K): 1264.5 ± 1.4 kg/m3; viscosity ([1]; 333.15 K): 646 ± 47 mPa·s; speed of sound ([1]; 333.15 K): 1770.2 ± 4.5 m/s; mass density ([1]; 333.15 K): 1261.3 ± 1.4 kg/m3; viscosity ([1]; 338.15 K): 528 ± 38 mPa·s; speed of sound ([1]; 338.15 K): 1758.5 ± 4.5 m/s; mass density ([1]; 338.15 K): 1258.1 ± 1.4 kg/m3; viscosity ([1]; 343.15 K): 437 ± 31 mPa·s; speed of sound ([1]; 343.15 K): 1747 ± 4.5 m/s; mass density ([1]; 343.15 K): 1254 ± 1.4 kg/m3; refractive index ([2]; 293.15 K): 1.52031 ± 0.00051; refractive index ([2]; 298.15 K): 1.51902 ± 0.00051; refractive index ([2]; 303.15 K): 1.5177 ± 0.00051; refractive index ([2]; 308.15 K): 1.5164 ± 0.00051; refractive index ([2]; 313.15 K): 1.51508 ± 0.00051; refractive index ([2]; 318.15 K): 1.51374 ± 0.00051; refractive index ([2]; 323.15 K): 1.51245 ± 0.00051; refractive index ([2]; 328.15 K): 1.51115 ± 0.00051; refractive index ([2]; 333.15 K): 1.50982 ± 0.00051; refractive index ([2]; 338.15 K): 1.50852 ± 0.00051; refractive index ([2]; 343.15 K): 1.50722 ± 0.00051
